pEC50, pKi: −log10 of the molar value. Where a name gives a salt, the structure may show the parent alone.
What was measured:
μ-receptor = μ-receptor (Homo sapiens (Human), UniProt P35372); experiment: Receptor binding, competitive displacement of [3H]DAMGO; details: 0.25 nM [3H]DAMGO, CHO cell membrane protein, 60 min at 25° C.
Experimental: The Ki (binding affinity) for μ-receptor was determined with a previously described method using a competitive displacement assay (Neumeyer et al., J. Med. Chem., v. 46, p. 5162-5170, 2003). Membrane protein from CHO (Chinese Hamster Ovarian) cells that stably expressed one type of the cloned human opioid receptor were incubated with 12 different concentrations of the compound in the presence of 0.25 nM [3H]DAMGO, 0.2 nM [3H]naltrindole or 1 nM [3H]U69,593 in a final volume of 1 mL of 50 mM Tris-HCl, pH 7.5 at 25° C. Incubation times of 60 min were used for [3H]DAMGO and [3H]U69,593. Because of a slower association of [3H]naltrindole with the receptor, a 3 h incubation was used with this radioligand. Samples incubated with [3H]naltrindole also contained 10 mM MgCl2 and 0.5 mM phenylmethylsulfonyl fluoride. Nonspecific binding was measured by inclusion of 10 μM naloxone. The binding was terminated by filtering the samples through Schleicher & Schuell No. 32 glass fiber filters using a Brandel 48-well cell harvester. The filters were subsequently washed three times with 3 mL of cold 50 mM Tris-HCl, pH 7.5, and were counted in 2 mL Ecoscint A scintillation fluid. For [3H]naltrindole and [3H]U69,593 binding, the filters were soaked in 0.1% polyethylenimine for at least 60 min before use. IC50 values will be calculated by least squares fit to a logarithm-probit analysis. Ki values of unlabelled compounds were calculated from the equation Ki=(IC50)/1+S where S=(concentration of radioligand)/(Kd of radioligand) (Cheng and Prusoff, Biochemical Pharmacology, v. 22, p. 3099-3108, 1973).

human μ opioid receptor = human μ opioid receptor (Homo sapiens (Human), UniProt P35372); experiment: Functional activity ([35S]GTPγS binding); assay type: biochemical; details: [35S]GTPγS 0.080 nM, CHO cell membranes, 60 min at 30° C., filtration
Experimental: The [^35S]GTPγS assay measures the functional properties of a compound by quantifying the level of G-protein activation following agonist binding in studies using stably transfected cells, and is considered to be a measure of the efficacy of a compound. Membranes from CHO (Chinese Hamster Ovary) cells that stably expressed one type of the cloned human opioid receptor human were used in the experiments. In a final volume of 0.5 mL, 12 different concentrations of each test compound were incubated with 7.5 μg of CHO cell membranes that stably expressed the human p opioid receptor. The assay buffer consisted of 50 mM Tris-HCl, pH 7.4, 3 mM MgCl2, 0.2 mM EGTA, 3 μM GDP, and 100 mM NaCl. The final concentration of [35S]GTPγS was 0.080 nM. Nonspecific binding was measured by inclusion of 10 μM GTPγS. Binding was initiated by the addition of the membranes. After an incubation of 60 min at 30° C., the samples were filtered through Schleicher & Schuell No. 32 glass fiber filters. The filters were washed three times with cold 50 mM Tris-HCl, pH 7.5, and were counted in 2 mL of Ecoscint scintillation fluid.

Row | Structure (SMILES) | pKi (μ-receptor) | pEC50 (human μ opioid receptor)
1 | COC1(c2ccnc(C(N)=O)c2)C2CCCC1CN(C1CC3CCC(C1)O3)C2 [Compound 10, 4-((1R,5S,9R)-3-((1R,3r,5S)-8-oxabicyclo[3.2.1]octan-3-yl)-9-methoxy-3-azabicyclo[3.3.1]nonan-9-yl)picolinamide hydrochloride] | < 8.30 | < 7.12
2 | COC1(c2ccnc(C(N)=O)c2)C2CCCC1CN(C13CC(C1)C3)C2 [Compound 103, 4-((1R,5S,9r)-3-(bicyclo[1.1.1]pentan-1-yl)-9-methoxy-3-azabicyclo[3.3.1]nonan-9-yl)picolinamide hydrochloride] | 8.30 to 9.00 | < 7.12
3 | COC1(c2ccnc(C(N)=O)c2)C2CCCC1CN(CC1(O)CC1)C2 [Compound 72, 4-((1R,5S,9r)-3-((1-hydroxycyclopropyl)methyl)-9-methoxy-3-azabicyclo[3.3.1]nonan-9-yl)picolinamide hydrochloride] | 8.30 to 9.00 | < 7.12
4 | COC1(c2ccnc(C(N)=O)c2)C2CCCC1CN(C13CC(c4ccccc4)(C1)C3)C2 [Compound 106, 4-((1R,5S,9r)-9-methoxy-3-(3-phenylbicyclo[1.1.1]pentan-1-yl)-3-azabicyclo[3.3.1]nonan-9-yl)picolinamide hydrochloride] | > 9.00 | > 8.00
5 | COC1(c2ccnc(C(N)=O)c2)C2CCCC1CN(Cc1cccnc1)C2 [Compound 68, 4-((1R,5S,9r)-9-methoxy-3-(pyridin-3-ylmethyl)-3-azabicyclo[3.3.1]nonan-9-yl)picolinamide dihydrochloride] | 8.30 to 9.00 | 7.12 to 8.00
6 | CCCC(C)N1CC2CCCC(C1)C2(OC)c1ccnc(C(N)=O)c1 [Compound 118, 4-((1R,5S,9r)-9-methoxy-3-(pentan-2-yl)-3-azabicyclo[3.3.1]nonan-9-yl)picolinamide hydrochloride] | 8.30 to 9.00 | 7.12 to 8.00
7 | Cl.[2H]C([2H])([2H])N1CC2CCCC(C1)C2(OC)c1cccc(C(N)=O)c1 [Compound 54, 3-((1R,5S,9r)-9-methoxy-3-(trideuteriomethyl)-3-azabicyclo[3.3.1]nonan-9-yl)benzamide hydrochloride] | > 9.00 | > 8.00
8 | COC1(c2cccc(C(N)=O)c2)C2CCCC1CN(CCc1ccccc1)C2 [Compound 24, 3-((1R,5S,9r)-9-methoxy-3-phenethyl-3-azabicyclo[3.3.1]nonan-9-yl)benzamide hydrochloride] | > 9.00 | > 8.00
9 | COC1(c2cccc(C(N)=O)c2)C2CCCC1CN(C[C@@H]1C[C@@H]3C[C@@H]3C1)C2 (stereo partly drawn) [Compound 156, 3-((1R,5S,9R)-3-((1R,3r,5S)-bicyclo[3.1.0]hexan-3-ylmethyl)-9-methoxy-3-azabicyclo[3.3.1]nonan-9-yl)benzamide hydrochloride] | > 9.00 | > 8.00
10 | CCC[C@@H](C)N1CC2CCCC(C1)C2(OC)c1ccnc(C(N)=O)c1 (single isomer, unassigned) [Compound 137, hydrochloride] | 8.30 to 9.00 | 7.12 to 8.00
11 | COC1(c2cccc(C(N)=O)c2O)C2CCCC1CN(C)C2 [Compound 49, 2-hydroxy-3-((1R,5S,9r)-9-methoxy-3-methyl-3-azabicyclo[3.3.1]nonan-9-yl)benzamide hydrochloride] | > 9.00 | > 8.00
12 | COC1(c2ccnc(C(N)=O)c2)C2CCCC1CN(C1CCOC1)C2 [Compound 74, 4-((1R,5S,9r)-9-methoxy-3-(tetrahydrofuran-3-yl)-3-azabicyclo[3.3.1]nonan-9-yl)picolinamide hydrochloride] | 8.30 to 9.00 | 7.12 to 8.00
13 | COC1(c2cccc(C(N)=O)c2)C2CCCC1CN(CCC(F)(F)F)C2 [Compound 34, 3-((1R,5S,9r)-9-methoxy-3-(3,3,3-trifluoropropyl)-3-azabicyclo[3.3.1]nonan-9-yl)benzamide hydrochloride] | > 9.00 | > 8.00
14 | CCOC1(c2cccc(C(N)=O)c2)C2CCCC1CN(CC1CC1)C2 [Compound 30, 3-((1R,5S,9r)-3-(cyclopropylmethyl)-9-ethoxy-3-azabicyclo[3.3.1]nonan-9-yl)benzamide hydrochloride] | > 9.00 | > 8.00
15 | COC1(c2ccc(C(N)=O)s2)C2CCCC1CN(CCN1CCCS1(=O)=O)C2 [Compound 97, 5-((1R,5S,9r)-3-(2-(1,1-dioxidoisothiazolidin-2-yl)ethyl)-9-methoxy-3-azabicyclo[3.3.1]nonan-9-yl)thiophene-2-carboxamide (S)-2-hydroxysuccinate] | > 9.00 | 7.12 to 8.00
16 | COC1(c2ccnc(C(N)=O)c2)C2CCCC1CN(Cc1ccccn1)C2 [Compound 67, 4-((1R,5S,9r)-9-methoxy-3-(pyridin-2-ylmethyl)-3-azabicyclo[3.3.1]nonan-9-yl)picolinamide dihydrochloride] | 8.30 to 9.00 | 7.12 to 8.00
17 | COC1(c2ccnc(C(N)=O)c2)C2CCCC1CN(C1CCC1)C2 [Compound 90, 4-((1R,5S,9r)-3-cyclobutyl-9-methoxy-3-azabicyclo[3.3.1]nonan-9-yl)picolinamide hydrochloride] | 8.30 to 9.00 | 7.12 to 8.00
18 | COC1(c2ccc(C(N)=O)s2)C2CCCC1CN(CCN1CCNC1=O)C2 [Compound 95, 5-((1R,5S,9r)-9-methoxy-3-(2-(2-oxoimidazolidin-1-yl)ethyl)-3-azabicyclo[3.3.1]nonan-9-yl)thiophene-2-carboxamide (S)-2-hydroxysuccinate] | 8.30 to 9.00 | < 7.12
19 | COC1(c2ccnc(C(N)=O)c2)C2CCCC1CN([C@H]1CC[C@@H]1C)C2 (stereo in doubt) [Compound 147, 4-((1R,5S,9R)-9-methoxy-3-((1R,2R)-2-methylcyclobutyl)-3-azabicyclo[3.3.1]nonan-9-yl)picolinamide hydrochloride] | 8.30 to 9.00 | 7.12 to 8.00
20 | COC1(c2ccnc(C(N)=O)c2)C2CCCC1CN(C1CCCOC1)C2 [Compound 111, 4-((1R,5S,9r)-9-methoxy-3-(tetrahydro-2H-pyran-3-yl)-3-azabicyclo[3.3.1]nonan-9-yl)picolinamide hydrochloride] | < 8.30 | < 7.12
21 | COC[C@@H](C)N1CC2CCCC(C1)C2(OC)c1ccnc(C(N)=O)c1 (single isomer, unassigned) [Compound 62, hydrochloride] | < 8.30 | < 7.12
22 | COC1(c2cccc(C(N)=O)c2)C2CCCC1CN(C[C@@H]1CCOC1)C2.Cl (single isomer, unassigned) [Compound 143, hydrochloride] | > 9.00 | > 8.00
23 | COC1(c2cccc(C(N)=O)c2)C2CCCC1CN([C@H]1CCCOC1)C2.Cl (single isomer, unassigned) [Compound 140, hydrochloride] | > 9.00 | 7.12 to 8.00
24 | COC1(c2ccnc(C(N)=O)c2)C2CCCC1CN([C@@H]1CCOC1)C2 (stereo partly drawn) [Compound 78, 4-((1R,5S,9s)-9-methoxy-3-((S)-tetrahydrofuran-3-yl)-3-azabicyclo[3.3.1]nonan-9-yl)picolinamide hydrochloride] | 8.30 to 9.00 | 7.12 to 8.00
25 | COC[C@H](C)N1CC2CCCC(C1)C2(OC)c1ccnc(C(N)=O)c1.Cl (single isomer, unassigned) [Compound 61, hydrochloride] | 8.30 to 9.00 | 7.12 to 8.00
26 | COC1(c2ccnc(C(N)=O)c2)C2CCCC1CN(C(C)(C)C)C2 [Compound 107, 4-((1R,5S,9r)-3-(tert-butyl)-9-methoxy-3-azabicyclo[3.3.1]nonan-9-yl)picolinamide hydrochloride] | 8.30 to 9.00 | < 7.12
27 | COCCN1CC2CCCC(C1)C2(OC)c1ccnc(C(N)=O)c1 [Compound 83, 4-((1R,5S,9r)-9-methoxy-3-(2-methoxyethyl)-3-azabicyclo[3.3.1]nonan-9-yl)picolinamide hydrochloride] | 8.30 to 9.00 | 7.12 to 8.00
28 | COC1(c2cccc(C(N)=O)c2)C2CCCC1CN(CC1CCC1)C2 [Compound 26, 3-((1R,5S,9r)-3-(cyclobutylmethyl)-9-methoxy-3-azabicyclo[3.3.1]nonan-9-yl)benzamide hydrochloride] | > 9.00 | > 8.00

Reference: patent publication US10604489B2, “Compounds for the treatment of pain” (priority 2018, dated 2020)
